# In ChEMBL document CHEMBL5543080, “5+1-Heterocyclization as preparative approach for carboxy-containing triazolo[1,5-c]quinazolines with anti-inflammatory activity” (2024):
# What was measured:
# Type in all cases: functional
# Rattus norvegicus [1] = assay: (§1) Antiinflammatory activity in carrageenan induced Wistar rat model of acute aseptic inflammation assessed as edema paw volume at 25 mg/kg, IG preadministered with compound for 1 hrs followed by carrageenan administration and measured after 3 hrs by water displacement plethysmometer (reference value: 2.23 +/- 0.13 ml); conditions: time 4 hrs
# Rattus norvegicus [2] = assay: Antiinflammatory activity in Wistar rat model of acute aseptic inflammation assessed as inhibition of carrageenan-induced exudative inflammation at 25 mg/kg, IG preadministered with compound for 1 hrs followed by carrageenan administration and measured after 3 hrs by water displacement plethysmometer relative to control; conditions: po, time 4 hrs
# Rattus norvegicus [3] = assay: as §1, with “healthy” for “edema”, “1.38” for “2.23”, “0.06” for “0.13”; conditions: time 4 hrs
# Rattus norvegicus [4] = assay: Antiinflammatory activity in Wistar rat model of acute aseptic inflammation assessed as increase in eNOS level at 25 mg/kg, IG preadministered with compound for 1 hrs followed by carrageenan administration and measured after 3 hrs by ELISA relative to control; conditions: time 4 hrs
# Rattus norvegicus [5] = assay: (§2) Antiinflammatory activity in Wistar rat model of acute aseptic inflammation assessed as reduction in paw edema by measuring IL-1beta level at 25 mg/kg, IG preadministered with compound for 1 hrs followed by carrageenan administration and measured after 3 hrs by ELISA (reference value: 3.250 +/- 0.778 pg/ml); conditions: time 4 hrs
# Rattus norvegicus [6] = assay: Antiinflammatory activity in Wistar rat model of acute aseptic inflammation assessed as decrease in nitrotyrosine level at 25 mg/kg, IG preadministered with compound for 1 hrs followed by carrageenan administration and measured after 3 hrs by ELISA relative to control; parameters: scale not given: the % may be the effect or the level left; conditions: time 4 hrs
# Rattus norvegicus [7] = assay: as §2, with “neutrophils” for “IL-1beta”, “hrs” for “hrs by ELISA”, “4.100” for “3.250”, “0.424 10^3/ml)” for “0.778 pg/ml)”; conditions: time 4 hrs
# Rattus norvegicus [8] = assay: as §2, with “eNOS” for “IL-1beta”, “8.150” for “3.250”, “6.576” for “0.778”; conditions: time 4 hrs
# Rattus norvegicus [9] = assay: as §2, with “COX-2” for “IL-1beta”, “15.00” for “3.250”, “4.243 ng/ml)” for “0.778 pg/ml)”; conditions: time 4 hrs
# Rattus norvegicus [10] = assay: as §1, with “healthy” for “edema”, “1.20” for “2.23”, “0.06” for “0.13”; conditions: time 4 hrs
# Rattus norvegicus [11] = assay: as §2, with “C-reactive protein” for “IL-1beta”, “10.64” for “3.250”, “1.223 ng/ml)” for “0.778 pg/ml)”; conditions: time 4 hrs
# Rattus norvegicus [12] = assay: as §1, with “2.48” for “2.23”, “0.09” for “0.13”; conditions: time 4 hrs
# Rattus norvegicus [13] = assay: as §2, with “nitrotyrosine” for “IL-1beta”, “16.45” for “3.250”, “3.748 nM/ml)” for “0.778 pg/ml)”; conditions: time 4 hrs
Compound,Activity (Rattus norvegicus [1]),inhibition in vivo at 25 mg/kg (Rattus norvegicus [2]),Activity (Rattus norvegicus [3]),Activity (Rattus norvegicus [4]),Activity (Rattus norvegicus [5]),Activity (Rattus norvegicus [6]),Activity (Rattus norvegicus [7]),Activity (Rattus norvegicus [8]),Activity (Rattus norvegicus [9]),Activity (Rattus norvegicus [10]),Activity (Rattus norvegicus [11]),Activity (Rattus norvegicus [12]),Activity (Rattus norvegicus [13])
O=C(O)CCC12CCC(=O)N1c1ccccc1-c1nc(-c3ccccc3)nn12 (stereo not drawn),2.25 mL,0.94%,1.41 mL,–,–,–,–,–,–,–,–,–,–
O=C(O)c1cc(C2Nc3ccccc3-c3nc(-c4ccccc4)nn32)ccc1O (stereo not drawn),–,33.1%,–,77.06%,0.427 pg/mL,30.88%,2.433 10^3/ml,25.97 pg/mL,11.27 ng/mL,1.28 mL,5.267 ng/mL,2.13 mL,10.67 nM/ml
O=C([O-])Cc1ccccc1Nc1c(Cl)cccc1Cl.[Na+] [DICLOFENAC SODIUM],1.84 mL,69.8%,1.55 mL,18.07%,1.27 pg/mL,21.42%,2.52 10^3/ml,8.43 pg/mL,9.785 ng/mL,–,4.245 ng/mL,–,17.6 nM/ml
CCOC(=O)c1ccc(-c2nc3n(n2)C2(C(=O)O)CCC(=O)N2c2ccccc2-3)cc1 (stereo not drawn),2.23 mL,5.75%,1.43 mL,–,–,–,–,–,–,–,–,–,–
CCOC(=O)c1ccc(-c2nc3n(n2)C(c2ccc(C(=O)O)c(O)c2)Nc2ccccc2-3)cc1 (stereo not drawn),–,18.3%,–,–,–,–,–,–,–,1.39 mL,–,2.38 mL,–
O=C(O)c1ccc(C2Nc3ccccc3-c3nc(-c4ccccc4)nn32)cc1 (stereo not drawn),–,16.1%,–,–,–,–,–,–,–,1.28 mL,–,2.35 mL,–
CCOC(=O)C1(C)Nc2ccccc2-c2nc(-c3ccccc3)nn21 (stereo not drawn),2.03 mL,24.3%,1.39 mL,–,–,–,–,–,–,–,–,–,–
O=C1CCC2(C(=O)O)N1c1ccccc1-c1nc(-c3ccccc3)nn12 (stereo not drawn),2.19 mL,6.22%,1.39 mL,–,–,–,–,–,–,–,–,–,–
CCOC(=O)c1nc2n(n1)C(c1ccc(C(=O)O)cc1)Nc1ccccc1-2 (stereo not drawn),–,52.7%,–,–,0.253 pg/mL,–,1.667 10^3/ml,39.9 pg/mL,3.033 ng/mL,1.45 mL,2.48 ng/mL,2.05 mL,5.367 nM/ml
CCOC(=O)c1ccc(-c2nc3n(n2)C(c2ccc(C(=O)O)cc2)Nc2ccccc2-3)cc1 (stereo not drawn),–,21.9%,–,–,0.87 pg/mL,–,2.533 10^3/ml,14.43 pg/mL,4.367 ng/mL,1.38 mL,5.8 ng/mL,2.37 mL,11.37 nM/ml
CCOC(=O)c1nc2n(n1)C1(CCC(=O)O)CCC(=O)N1c1ccccc1-2 (stereo not drawn),2.03 mL,12.2%,1.28 mL,–,–,–,–,–,–,–,–,–,–
O=C(O)C1Nc2ccccc2-c2nc(-c3ccccc3)nn21 (stereo not drawn),2.03 mL,12.2%,1.28 mL,–,–,–,–,–,–,–,–,–,–
O=C1c2ccccc2C2N1c1ccccc1-c1nc(-c3ccccc3)nn12 (stereo not drawn),1.99 mL,12.5%,1.25 mL,–,–,–,–,–,–,–,–,–,–
CCOC(=O)CC1(C)Nc2ccccc2-c2nc(-c3ccc(OC)cc3)nn21 (stereo not drawn),2.12 mL,7.27%,1.33 mL,–,–,–,–,–,–,–,–,–,–
CCOC(=O)c1nc2n(n1)C(c1ccc(O)c(C(=O)O)c1)Nc1ccccc1-2 (stereo not drawn),–,45.8%,–,–,2.633 pg/mL,–,2.133 10^3/ml,35.23 pg/mL,3.7 ng/mL,1.34 mL,3.183 ng/mL,2.03 mL,5.6 nM/ml
CCOC(=O)c1ccc(-c2nc3n(n2)C(c2cccc(C(=O)O)c2)Nc2ccccc2-3)cc1 (stereo not drawn),–,31%,–,–,0.613 pg/mL,–,2.4 10^3/ml,28.03 pg/mL,3.8 ng/mL,1.36 mL,4.233 ng/mL,2.24 mL,6.433 nM/ml
